Laboratory results as given in patent publication US10414811B2, “Protease-resistant lipidated GLP-1 analogs” (MEDIMMUNE LIMITED, priority 2015, dated 2019).
Where two headings read alike, the source gives them in different places. Numbered stars: 1 amine (or outer) side, 2 acyl side, 3 side chain; on linkers, the order of the positions; unused ones are H or OH. Square brackets hold non-standard residues; d marks the D form. Side chains are listed from the residue outwards. Peptide text beside a SMILES is read from it. * marks the point of attachment. γGlu = O=C(O)[C@H](CCC(=O)[*:2])N[*:1]; Stearoyl = CCCCCCCCCCCCCCCCCC(=O)*; Palmitoyl = CCCCCCCCCCCCCCCC(=O)*; αMeF = C[C@](N)(Cc1ccccc1)C(=O)O; αMeK = C[C@](N)(CCCCN)C(=O)O; αMeS = C[C@](N)(CO)C(=O)O; AEEA = NCCOCCOCC(=O)O; Aib = CC(C)(N)C(=O)O

Legend:
Type in all cases: cell-based
[1] = target: T1, human glucose-dependent insulinotropic peptide receptor (GIPR) (Homo sapiens, UniProt P48546); assay: cAMP assay, human GIPR cells; conditions: cAMP assay
T1 construct: expressed in transfected cells
T1 sequence (P48546 22-466): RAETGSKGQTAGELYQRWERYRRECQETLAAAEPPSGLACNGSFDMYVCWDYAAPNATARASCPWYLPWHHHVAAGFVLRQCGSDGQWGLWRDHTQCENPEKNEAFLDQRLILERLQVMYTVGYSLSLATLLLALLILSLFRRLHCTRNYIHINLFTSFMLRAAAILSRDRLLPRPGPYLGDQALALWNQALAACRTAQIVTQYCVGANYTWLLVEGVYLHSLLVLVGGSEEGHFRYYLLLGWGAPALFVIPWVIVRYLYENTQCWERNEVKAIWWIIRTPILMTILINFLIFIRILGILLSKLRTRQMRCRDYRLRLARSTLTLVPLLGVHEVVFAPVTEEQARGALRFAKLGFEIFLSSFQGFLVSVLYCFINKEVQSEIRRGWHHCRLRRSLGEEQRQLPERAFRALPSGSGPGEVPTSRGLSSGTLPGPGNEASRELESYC
Outline: (§1)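 Peptide-stimulated cAMP measured by two-step HTRF after a 30 min room-temperature incubation with receptor-expressing cells (hGLP-1R, hGIPR at 1×10^5 cells/ml; hGCGR at 2×10^5 cells/ml). Duplicate dilutions; EC50 from 4-parameter logistic fit of % Delta F.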

[2] = target: T2, human GLP-1 receptor (GLP-1R) (Homo sapiens, UniProt P43220); assay: cAMP assay, human GLP-1R cells
T2 construct: expressed in transfected cells
Outline: as §1

[3] = target: T3, human glucagon receptor (GCGR) (Homo sapiens, UniProt P47871); assay: cAMP assay, human GCGR cells; conditions: cAMP assay
T3 construct: expressed in transfected cells
Outline: as §1

GLP-1R (INS1e assay) = target: T4, GLP-1R (INS1e assay) (Rattus norvegicus, UniProt P32301); assay: INS1e assay, cAMP activity at GLP-1R; conditions: mono-lipidated peptides
T4 construct: endogenous in cells; host or cells: INS-1E cells
T4 sequence (P32301 22-463): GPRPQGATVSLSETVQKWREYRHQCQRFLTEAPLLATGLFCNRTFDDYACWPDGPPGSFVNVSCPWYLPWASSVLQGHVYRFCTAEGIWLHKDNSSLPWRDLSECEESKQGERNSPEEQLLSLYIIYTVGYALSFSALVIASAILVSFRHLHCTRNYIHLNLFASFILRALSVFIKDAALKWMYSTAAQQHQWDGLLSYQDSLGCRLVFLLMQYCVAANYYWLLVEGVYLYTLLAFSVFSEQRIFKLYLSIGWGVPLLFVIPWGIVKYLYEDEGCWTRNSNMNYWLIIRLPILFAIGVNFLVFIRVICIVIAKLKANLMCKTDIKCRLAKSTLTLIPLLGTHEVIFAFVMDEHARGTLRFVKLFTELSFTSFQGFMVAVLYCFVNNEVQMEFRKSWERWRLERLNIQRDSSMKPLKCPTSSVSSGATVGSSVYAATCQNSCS
Outline: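 It pairs cAMP-d2 acceptor with anti-cAMP cryptate donor, both prepared 1/20 in conjugate/lysis buffer, applied as a two-step protocol.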

[4] = first determination (n1), read-out: Primary assay EC50 GIP-R (n1)
[5] = second determination (n2), read-out: Primary assay EC50 GIP-R (n2)
[6] = cAMP assay, first determination (n1), read-out: Primary assay EC50 GLP-1R n1
[7] = cAMP assay, second determination (n2), read-out: Primary assay EC50 GLP-1R n2
[8] = mean of n1 and n2, read-out: Mean pM GLP-1R
[9] = first determination (n1), read-out: Primary assay EC50 Gluc-R (n1)
[10] = second determination (n2), read-out: Primary assay EC50 Gluc-R (n2)
[11] = mean of n1 and n2, read-out: INS1e assay EC50 Mean pM GLP-1R
[12] = replicate n1, read-out: INS1e assay EC50 GLP-1R n1
[13] = replicate n2, read-out: INS1e assay EC50 GLP-1R n2

T2 sequence (P43220 24-463): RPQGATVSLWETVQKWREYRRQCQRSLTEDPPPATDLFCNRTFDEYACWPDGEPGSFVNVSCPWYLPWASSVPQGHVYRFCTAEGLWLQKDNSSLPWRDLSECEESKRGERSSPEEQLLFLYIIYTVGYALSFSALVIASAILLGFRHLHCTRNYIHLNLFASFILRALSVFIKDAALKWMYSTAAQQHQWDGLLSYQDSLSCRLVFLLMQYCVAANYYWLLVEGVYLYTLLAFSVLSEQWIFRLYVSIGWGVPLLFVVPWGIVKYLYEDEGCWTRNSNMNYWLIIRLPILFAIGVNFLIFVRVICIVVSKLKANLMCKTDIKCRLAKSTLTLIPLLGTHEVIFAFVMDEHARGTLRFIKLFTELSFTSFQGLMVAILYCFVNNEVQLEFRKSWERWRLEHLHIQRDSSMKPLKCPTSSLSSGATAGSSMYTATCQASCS
T3 sequence (P47871 26-477): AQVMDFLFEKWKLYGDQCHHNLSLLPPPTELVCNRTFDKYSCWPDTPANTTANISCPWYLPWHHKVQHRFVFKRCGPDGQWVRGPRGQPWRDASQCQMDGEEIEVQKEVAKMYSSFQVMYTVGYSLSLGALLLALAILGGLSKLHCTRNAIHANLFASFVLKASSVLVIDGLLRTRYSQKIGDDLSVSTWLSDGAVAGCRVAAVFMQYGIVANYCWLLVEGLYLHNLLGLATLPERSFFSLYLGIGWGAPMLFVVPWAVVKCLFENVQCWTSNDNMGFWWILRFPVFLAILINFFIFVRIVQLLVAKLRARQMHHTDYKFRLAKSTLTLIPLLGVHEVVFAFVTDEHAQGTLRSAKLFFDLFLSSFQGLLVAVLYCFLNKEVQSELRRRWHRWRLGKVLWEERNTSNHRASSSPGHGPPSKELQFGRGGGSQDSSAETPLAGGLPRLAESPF

SMILES | EC50 [1, 4] | EC50 [1, 5] | EC50 [2, 6] | EC50 [2, 7] | EC50 [2, 8] | EC50 [3, 9] | EC50 [3, 10] | EC50 (GLP-1R (INS1e assay); [11]) | EC50 (GLP-1R (INS1e assay); [12]) | EC50 (GLP-1R (INS1e assay); [13])
CCCCCCCCCCCCCCCC(=O)N[C@@H](CCC(=O)NCCCC[C@H](NC(=O)[C@](C)(Cc1ccccc1)NC(=O)[C@H](CO)NC(=O)[C@](C)(CO)NC(=O)[C@@H](NC(=O)[C@H](CC(=O)O)NC(=O)[C@H](CO)NC(=O)[C@@H](NC(=O)[C@](C)(Cc1ccccc1)NC(=O)[C@H](CO)NC(=O)CNC(=O)[C@H](CCC(=O)O)NC(=O)C(C)(C)NC(=O)[C@@H](N)Cc1c[nH]cn1)[C@@H](C)O)C(C)C)C(=O)N[C@@H](CCC(=O)O)C(=O)NCC(=O)N[C@@H](CCC(=O)O)C(=O)N[C@@H](C)C(=O)N[C@@H](C)C(=O)N[C@@](C)(CCCCN)C(=O)N[C@@H](CCC(=O)O)C(=O)N[C@@](C)(Cc1ccccc1)C(=O)N[C@H](C(=O)N[C@@H](C)C(=O)N[C@@](C)(Cc1ccccc1)C(=O)N[C@H](C(=O)N[C@H](C(=O)N[C@@](C)(CCCCN)C(=O)NCC(=O)NCC(N)=O)C(C)C)C(C)C)[C@@H](C)CC)C(=O)O [compound 86] (H-H[Aib]EGS[αMeF]TSDV[αMeS]S[αMeF]K([γGlu-Palmitoyl])EGEAA[αMeK]E[αMeF]IA[αMeF]VV[αMeK]GG-NH2) | ≥ 28 nM | ≥ 28 nM | 1.3 pM | 1.7 pM | 1.5 pM | ≥ 28 nM | ≥ 28 nM | 65 pM | 45.3 pM | 84.5 pM
CCCCCCCCCCCCCCCCCC(=O)NCCOCCOCC(=O)NCCOCCOCC(=O)NCCOCCOCC(=O)NCCCC[C@H](NC(=O)[C@H](C)NC(=O)[C@H](C)NC(=O)[C@H](CCC(=O)O)NC(=O)CNC(=O)[C@H](CCC(=O)O)NC(=O)[C@H](CC(C)C)NC(=O)[C@](C)(Cc1ccccc1)NC(=O)[C@H](CO)NC(=O)[C@](C)(CO)NC(=O)[C@@H](NC(=O)[C@H](CC(=O)O)NC(=O)[C@H](CO)NC(=O)[C@@H](NC(=O)[C@](C)(Cc1ccccc1)NC(=O)[C@H](CO)NC(=O)CNC(=O)[C@H](CCC(=O)O)NC(=O)C(C)(C)NC(=O)[C@@H](N)Cc1c[nH]cn1)[C@@H](C)O)C(C)C)C(=O)N[C@@H](CCC(=O)O)C(=O)N[C@@](C)(Cc1ccccc1)C(=O)N[C@H](C(=O)N[C@@H](C)C(=O)N[C@@H](Cc1c[nH]c2ccccc12)C(=O)N[C@H](C(=O)N[C@H](C(=O)N[C@@](C)(CCCCN)C(=O)NCC(=O)NCC(N)=O)C(C)C)C(C)C)[C@@H](C)CC [compound 55] (H-H[Aib]EGS[αMeF]TSDV[αMeS]S[αMeF]LEGEAAK([AEEA-AEEA-AEEA-Stearoyl])E[αMeF]IAWVV[αMeK]GG-NH2) | ≥ 25 nM | ≥ 25 nM | 1.4 pM | 2.3 pM | 1.8 pM | ≥ 25 nM | ≥ 25 nM | 11 pM | 12.5 pM | 10.1 pM
